In the supplement of paper PMC10307832:

Experiments:
Experiment in all cases: relative viability (nuclei count vs DMSO), 5 days (fraction); higher = more cells survive
[1] = compound: CC(C)N(CCCNC(=O)Nc1ccc(C(C)(C)C)cc1)C[C@H]1O[C@@H](n2ccc3c(N)ncnc32)[C@H](O)[C@@H]1O + CC(=O)Nc1cccc(-n2c(=O)n(C3CC3)c(=O)c3c(Nc4ccc(I)cc4F)n(C)c(=O)c(C)c32)c1 [Trametinib] (partner 0.02 µM)
In short: (§1)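 Each reported value is a median over duplicate plates. It expresses relative viability: treated-well nuclei count divided by vehicle-well nuclei count. Lung cancer cell lines in 1536-well plates were dosed by pin tool a day after seeding, alone with one drug or with a fixed anchor-drug dose plus five library-drug doses (not always all listed) in √10 steps, and nuclei were counted after 5 days.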

[2] = compound: CC(C)N(CCCNC(=O)Nc1ccc(C(C)(C)C)cc1)C[C@H]1O[C@@H](n2ccc3c(N)ncnc32)[C@H](O)[C@@H]1O + COc1cccc2cc(-c3nc([C@H]4CC[C@H](C(=O)O)CC4)n4ncnc(N)c34)[nH]c12 [OSI-027] (partner 0.5 µM)
In short: as §1

Shikonin + Olaparib = compound: CC(C)=CC[C@@H](O)C1=CC(=O)c2c(O)ccc(O)c2C1=O [Shikonin] + O=C(c1cc(Cc2n[nH]c(=O)c3ccccc23)ccc1F)N1CCN(C(=O)C2CC2)CC1 [Olaparib] (partner 8 µM)
In short: as §1

[3] = compound: CC(C)N(CCCNC(=O)Nc1ccc(C(C)(C)C)cc1)C[C@H]1O[C@@H](n2ccc3c(N)ncnc32)[C@H](O)[C@@H]1O + C[C@@H](Oc1cc(-c2cnn(C3CCNCC3)c2)cnc1N)c1c(Cl)ccc(F)c1Cl [Crizotinib] (partner 1 µM)
In short: as §1

Cell Line	relative viability ([1]; first compound 0.08 µM)	relative viability ([1]; first compound 0.253 µM)	relative viability ([1]; first compound 0.8 µM)	relative viability ([1]; first compound 2.53 µM)	relative viability ([1]; first compound 8 µM)	relative viability ([2]; first compound 0.08 µM)	relative viability ([2]; first compound 0.253 µM)	relative viability ([2]; first compound 0.8 µM)	relative viability ([2]; first compound 2.53 µM)	relative viability ([2]; first compound 8 µM)	relative viability (Shikonin + Olaparib; first compound 0.01 µM)	relative viability (Shikonin + Olaparib; first compound 0.3162 µM)	relative viability (Shikonin + Olaparib; first compound 1 µM)	relative viability (Shikonin + Olaparib; first compound 0.1 µM)	relative viability ([3]; first compound 0.08 µM)	relative viability ([3]; first compound 0.253 µM)	relative viability ([3]; first compound 0.8 µM)	relative viability ([3]; first compound 2.53 µM)	relative viability ([3]; first compound 8 µM)
NCI-H1648	0.424	0.522	0.406	0.419	0.455	0.277	0.258	0.247	0.247	0.293	0.846	1.08	0.816						
SK-MES-1	0.537	0.63	0.589	0.553	0.537	0.615	0.685	0.586	0.619	0.586	0.887	0.723	0.495	0.665	0.991	1.05	1.01	0.997	0.956
NCI-H520	0.681	0.513	0.599	0.667	0.695	0.181	0.248	0.235	0.348	0.267	0.323	0.283	0.295	0.368	0.789	0.548	0.858	0.707	0.733
HCC-366	0.264	0.36	0.325	0.344	0.287	0.916	1.27	0.716	0.816	0.641	0.423	0.33	0.404	0.428	0.375	0.545	0.654	0.526	0.478
201T	0.719	0.692		0.733	0.695	0.417	0.864	0.624	0.77	0.903	0.843	0.869	0.951	0.893	1.01	1.01	1.09	1.03	1.04
HCC-827	0.499	0.473	0.572	0.537	0.505	0.699	0.838		0.722	0.665	0.678	0.621	0.52	0.562	0.883	0.952		0.949	0.881
NCI-H661	0.544	0.551	0.551	0.675	0.619	0.719	0.775	0.68	0.714	0.683	0.847	0.73	0.646	0.879	1.05	1.15	1.13	1.08	0.978
NCI-H2085	0.509	0.455	0.685	0.572	0.47	0.847	0.621	0.705	0.757	1	0.756	0.725	0.76	0.82	0.764	0.884	0.99	0.836	0.785
NCI-H647	0.435	0.368	0.478	0.467	0.432	0.511	0.579		0.742	0.586	0.723	0.488	0.47	0.597	1.01		1.05	1.15	0.953
SW 1573	0.591	0.565	0.588	0.67	0.559	0.501	0.679	0.635	0.683	0.705	0.661	0.321	0.0736	0.557	0.749	0.894	0.825	0.846	0.695
A-427	0.751	0.816	0.677	0.806	0.743	0.439	0.492	0.535	0.502	0.478	0.802	0.708	0.795	0.872	0.908	0.856	0.95	0.989	0.851
NCI-H460	0.103	0.0737	0.0752	0.127	0.129	0.62	0.551	0.693	0.564	0.601	0.584	0.515	0.39	0.615	0.827	1.1	0.958	0.88	0.696
NCI-H1703											0.42	0.395	0.241	0.47	0.635	0.61	0.685	0.647	0.491
NCI-H1792	0.397		0.372	0.419	0.29	0.693	0.702	0.716	0.586	0.72	0.263	0.463	0.427	0.314	0.975	0.919	1.01	0.915	1.03
Calu-6											0.6	0.556	0.356	0.695	0.744	0.863	0.79	0.771	0.781
SK-LU-1	0.567	0.469	0.513	0.501	0.428	0.372	0.424	0.352	0.405	0.338	0.45	0.441	0.468	0.413	1.03	0.931	0.969	1.08	0.875
EMC-BAC-2	0.895	0.851	0.965	0.854	0.819	0.384	0.485	0.42	0.412	0.355	0.484	0.486	0.427	0.562	0.729	0.727	0.655	0.643	0.707
LK-2	0.879	0.493	0.681	0.636	0.694	0.235	0.277	0.215	0.236	0.213	0.744	0.75	0.753	0.887	0.269	0.232	0.217	0.261	0.229
